Here are results for 1 compound from publication PMC12406258, “Uncovering the Unusual Inhibition Mechanism of a Trypanosome Alternative Oxidase Inhibitor Displaying Broad-Spectrum Activity against African Animal Trypanosomes” (Journal of Medicinal Chemistry, 2025).

Several values for one entry are separate records, joined by “and”; a condition that tells them apart may be missing. Identical values can stand only once.

Data set [1] has as its system T. brucei. Description: DNA configuration by fluorescence microscopy after DAPI staining. The class given is cell-based. To be noted: 2 × EC50, by 24 h. The text has this: To assess the cause of the apparent 24-h growth arrest visualized in Figure , we assessed the cellular DNA content by flow cytometry of fixed trypanosomes stained with the nucleic acid dye propidium iodide after RNase treatment. […] This indicates an inability to initiate new synthesis of nuclear DNA, while cells that already past that checkpoint were able to complete cell division. […] In T. brucei, the first phase of the cell cycle is the replication of the kinetoplast, before the subsequent duplication of the nucleus. Thus, at the start of the experiment (t = 0 h) an equal percentage of cells in the “compound 1” and “untreated control” cultures contained a single nucleus and kinetoplast (1N1K) or were in the initial stages of cell division with 2 kinetoplasts (1N2K) (Figure B). […] These observations strengthen our conclusion that treatment with 1 stops the initiation of a new cell division cycle, and specifically the replication of the kinetoplast that must precede nuclear DNA synthesis in trypanosomes. […]
The configuration of nuclei and kinetoplast DNA of treated and untreated T. brucei was visualized using a Vectashield mounting medium with the dye 4,6-diamidino-2-phenylindole (DAPI) (Vector Lab. CA, USA), as described. […] At least 500 cells were scored per slide for the number of kinetoplasts (K) and nuclei (N) as 1N1K, 1N2K, 2N2K, or other.

For data set [2], the system named is T. brucei wild type s427. Put plainly: Growth curve of T. brucei s427, continuous or 24 h limited exposure. To be noted: 2 × and 5 × EC50. The class given is cell-based. The protocol:
The results in Figure , which show the growth curve of T. brucei wild type s427 grown in the continuous presence or after a limited exposure (24 h) to 1, indicate that the growth pattern of cells with long-time exposure was similar to that of cells with limited exposure to 1. The compound seemed to rapidly induce an apparent growth inhibition, after approximately 4h, followed by a steep decline in population from 30 h. […] Thus, the effects of 1 on trypanosomes are irreversible before population decline begins.
2 Growth curve of T. brucei wild type s427 grown in either the continuous presence of 1 at indicated concentrations (filled symbols) or with the drug washed out with fresh media after 24 h (open symbols; the arrows indicate the time when compound 1 was withdrawn), or untreated (no drug control). The results presented are those of three biological repeats. Error bars represent SD of the biological replicates.

Data set [3] concerns T. equiperdum WT. Description: Resazurin-based drug sensitivity assay, T. equiperdum WT. The class given is cell-based. The conditions noted are these: Trypanosoma equiperdum. The protocol: Other Trypanosoma species used in this study include T. evansi AntTat 3/3 (Wild-type); and T. equiperdum BoTat 1 (Bordeaux trypanozoon antigenic type 1) P (wild-type). All the trypanosomes were used only as bloodstream trypomastigotes and cultured in the standard Hirumi’s Modified Iscove’s medium #9 (HMI-9), supplemented with 10% heat-inactivated Fetal Bovine Serum (FBS), 14 μL/L β-mercaptoethanol, and 3.0 g sodium hydrogen carbonate per liter of medium (pH 7.4). Trypanosomes were cultured in vented flasks at 37 °C in a 5% CO2 atmosphere.
Briefly, this protocol involves preparing a 96-well cell culture plate with a 100 μL serially diluted test compound (200 μM top concentration) in HMI-9 + 10% FBS (24 wells per control drug or test compound, with the 24th well serving as drug-free). This is followed by adjusting the cell density of mid-log-phase trypanosome cultures to the required concentration of 2 × 10^5 cells/mL (2 × 10^4 cells/well). […] All incubations were carried out at 37 °C with 5% CO2. […] EC50 values were calculated using GraphPad Prism 9.0 software via nonlinear regression with an equation for a sigmoidal dose–response curve with variable slope (GraphPad Software Inc., San Diego, CA, USA).
On the technique in general: Resazurin is reduced to fluorescent resorufin, in cell work by metabolically active cells.

Data set [4] has as its system Human Embryonic Kidney (HEK) 293-T cells. Put plainly: Cytotoxicity assay using Human Embryonic Kidney (HEK) 293 cells.
Experimental: In brief, HEK cells were grown in a culture made of 500 mL Dulbecco’s Modified Eagle’s Medium (DMEM) (Sigma), 50 mL New-born Calf Serum (NBCS) (Gibco), 5 mL L-Glutamax (200 mM, Gibco), and 5 mL Penicillin/ [...
The nature of data set [5]: Stability in PBS buffer. The conditions noted are these: 37 °C.
Data set [6] deals with T1, recombinant TAO (ΔMTS rTAO) (Trypanosoma brucei brucei, UniProt Q26710).
T1 construct: […]; SUMO (Small Ubiquitin-related Modifier) fusion from the expression system; made in house
Put plainly: TAO inhibitory kinetics (Lineweaver–Burk / Dixon plots). The class given is biochemical, T. brucei. The method, then:
To determine the type of inhibition with purified TAO, the kinetic assay was carried out in the presence of varying concentrations of 1 and substrate concentrations (Ubiquinol; Q1H2) (0–600 μM), with 250 ng TAO in a 1 mL (0.5 M Tris-HCl buffer, pH 7.3) reaction mix. The results were used to construct the Michaelis–Menten plot, which was then transformed to Lineweaver–Burk plots (Figure A).
The slopes of the Lineweaver–Burk primary plot were plotted against the varying concentrations of 1. K i = −(intercept over the X-axis) of the Dixon secondary plot.
As previously described, the Ubiquinol oxidase activity measurement was carried out using recombinant TAO lacking the mitochondrial targeting signal (ΔMTS). […] The reaction was carried out in a 1 cm cuvette for 2 min using a V-630 Jasco UV–vis spectrophotometer (Jasco Corporation, Tokyo, Japan). Briefly, the procedure involves preincubating 250 ng of the enzyme for 2 min in a 50 mM Tris-HCl (pH 7.3) buffer containing the detergent octaethylene glycol monododecylether (0.05% (w/v)) in a total reaction volume of 1 mL at 25 °C. […] For the inhibition reaction, 250 ng of the enzyme was preincubated with varying inhibitor concentrations for 2 min using the same buffer before the substrate was added. […] This was achieved using the same protocol but without TAO. […] The residual activities were plotted against the corresponding inhibitor concentration in a GraphPad Prism-9 software to obtain the IC50 value.

T1 sequence (Q26710 26-329, stated change not applied): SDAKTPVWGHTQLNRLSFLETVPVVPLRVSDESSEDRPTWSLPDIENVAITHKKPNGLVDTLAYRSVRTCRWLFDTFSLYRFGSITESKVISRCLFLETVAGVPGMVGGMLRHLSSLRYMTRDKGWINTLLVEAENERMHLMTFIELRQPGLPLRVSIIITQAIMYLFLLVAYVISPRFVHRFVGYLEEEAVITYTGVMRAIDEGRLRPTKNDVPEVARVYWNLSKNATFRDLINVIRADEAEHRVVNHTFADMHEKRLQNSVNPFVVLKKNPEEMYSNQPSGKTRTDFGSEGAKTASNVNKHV

Usually EC50 stands for the concentration at which the effect is half-maximal. Lower therefore signals an effect from little substance. The Ki is the dissociation constant of the complex between target and ligand, obtained from inhibition or displacement. With `Cc1cc(O)ccc1C(=O)OCCCCCCCCCCCCCC[P+](c1ccccc1)(c1ccccc1)c1ccccn1.[Br-]` [Compound 1, {14-[(4-Hydroxy-2-methylbenzoyl)-oxy]-tetradecyl}-diphenyl(pyridin-2-yl)-Phosphonium Bromide], in data set [1], the “Percentage of 1N1K cells” value is given as 100%. Further, in data set [2], the “Time from which population steeply declines” value is recorded as at least 30 h. Further, the “Time to apparent growth inhibition” value in data set [2] is “approximately 4 h”. The compound also gave an EC50 in data set [3] of 2.2 ± 0.2 nM. The “SI (selectivity index) for T. congolense” value in data set [4] came to 182. In addition, the “HEK EC50 (CC50, cytotoxicity)” value in data set [4] (HEK 293-T cells, n = 3) was 7490 nM and 7490 ± 100 nM. Besides, the “HEK SI (selectivity index)” value in data set [4] (SI = CC50 of HEK/EC50 of T. b. b WT (no glycerol)) was found to be 2385. In addition, the “Stability in PBS buffer” value in data set [5] is given as at least 1 h. Further, the Ki in data set [6] was found to be 3.46 nM. Besides, the “Vmax of TAO in the presence of inhibitor” value in data set [6] (5 nM inhibitor) is 34.7 µmol/min/mg; in data set [6] (10 nM inhibitor), 21.4 µmol/min/mg; in data set [6] (15 nM inhibitor), 13.0 µmol/min/mg. The “Type of inhibition of TAO” value in data set [6] (Lineweaver–Burk plot) was “noncompetitive”.
